Assay results as given in patent US4168379A, “Pyridin-3-ols” (BASF Aktiengesellschaft, priority 1977, dated 1979).

Assays:
in vivo = format: in vivo, rats (Sprague Dawley strain); details: rat, in vivo; oral, rats; dose at which Δ% was determined; read-out: Maximum action: Dose (highest non-toxic dose)
Method: (§1) To determine the anti-arrhythmic activity, the drugs were administered orally to rats (Sprague Dawley strain, weight […]) 45 minutes before the start of the narcosis.
(§2) The animals were narcotized with thiobutabartital (100 mg/kg administered intraperitoneally). The arrhythmogenic substance used was aconitine, which was administered by intravenous infusion (at a rate of 0.005 mg/kg. min) 60 minutes after administration of the test substance. In the case of untreated animals (N=30), arrhythmias occurred after an average of 3.7±0.9 minutes, the commencement of which can be delayed by anti-arrhythmic agents, the delay depending on the dosage.
(§3) For a quantitative evaluation of the linear relation between log dose (mg/kg) of the test substances and the relative prolongation of the duration of aconitine infusion (Δ%), the dose which extended the duration of infusion by 50% (ED 50) was determined. The prior art anti-arrhythmic agent quinidine served as a comparative substance.

[1] = system: Aconitine-induced arrhythmia; assay: animal or person; format: in vivo, rats (Sprague Dawley strain); details: for ED50: Rattus norvegicus, po, 1 h, read-out: ED 50: dose, administered orally, which prolongs the duration of aconitine infusion by 50%; for antiarrhythmic action (in words): as such and/or as acid addition salts
Method: as §1, §2, §3

[2] = acute toxicity (LD 50, Probit analysis, death within 24 hours); details: mouse, in vivo; for LD50 at 24 h: ip, intraperitoneal, female Swiss mice; for selectivity ratio: footnote 7 formula given as drawing 13, values correspond to LD 50 (mice, i.p.) / ED 50 (rats, oral), read-out: Therapeutic range
Method: The acute toxicity was determined on groups of 10 or 20 female Swiss mice, weighing 20-26 g, the compounds being administered intraperitoneally.

Row | Compound | MTD (in vivo) [mg/kg] | ED50 [1] [mg/kg] | antiarrhythmic action (in words) [1] | LD50 at 24 h [2] [mg/kg] | selectivity ratio [2]
1 | CCN(CC)CCC(C)CCOc1c(C)nc(Cc2ccccc2)c2c1COC2 (centres unmarked) [VII, 4-benzyl-6-methyl-1,3-dihydro-furo[3,4-c]pyridin-7-yl 5-diethylamino-(3-methylpentyl) ether] | 100 | 11.3 | have an antiarrhythmic action | 88.9 | 7.86
2 | Cc1nc(Cc2ccccc2)c2c(c1OCCC(C)CCNC(C)C)COC2 (centres unmarked) [VI, 4-benzyl-6-methyl-1,3-dihydrofuro[3,4-c]pyridin-7-yl 5-isopropylamino-(3-methylpentyl) ether] | 100 | 12.2 | have an antiarrhythmic action | 82.2 | 6.74
3 | Cc1nc(Cc2ccccc2)c2c(c1OCCCNC(C)C)COC2 [Example IV, 4-benzyl-6-methyl-1,3-dihydro-furo[3,4-c]pyridin-7-yl 3-isopropylamino-propyl ether] | 215 | 28.9 | have an antiarrhythmic action | 139 | 4.81
4 | Cc1nc(Cc2ccccc2)c2c(c1OCCCCNC(C)C)COC2 [V, 4-benzyl-6-methyl-1,3-dihydro-furo[3,4-c]pyridin-7-yl 4-isopropylaminobutyl ether] | 100 | 5.66 | have an antiarrhythmic action | 99.3 | 17.5
5 | C=C[C@H]1C[N@@]2CC[C@H]1C[C@@H]2[C@@H](O)c1ccnc2ccc(OC)cc12 [Quinidine, quinidine, reference compound] |  | 42.3 |  | 180 | 
6 | Cc1nc(Cc2ccccc2)c2c(c1OCCCCNC(C)(C)C)COC2 [VIII, 4-benzyl-6-methyl-1,3-dihydrofuro[3,4-c]pyridin-7-yl 4-tert.-butylamino-butyl ether] | 46.4 | 9.29 | have an antiarrhythmic action | 73.9 | 7.95
7 | CN(C)CCCOc1c(Cc2ccccc2)nc(Cc2ccccc2)c2c1COC2 [III, 4,6-dibenzyl-1,3-dihydrofuro[3,4-c]pyridin-7-yl 3-dimethylaminopropyl ether] | 215 | 14.9 | have an antiarrhythmic action | 98.3 | 6.6
